In patent US20250204515A1, “Heparanase Inhibition for Graft Protection” (University of Pittsburgh - Of the Commonwealth System of …, priority 2022, published 2025):
Entries after “also recorded” stand apart in the source; their conditions may differ.

How the values were obtained:
[1] = system: human lung microvascular endothelial cells (HLMVECs); experiment: In-vitro cellular toxicity test for HPSE inhibitor candidates
Description: In-vitro cellular toxicity test for HPSE Inhibitor candidates: Human lung microvascular endothelial cells (HLMVECs) were obtained from the American Type Culture Collection (Rockville, MD, USA). Cells were cultured in a humidified incubator at 37° C. and 5% CO2 and grown in endothelial growth medium (EGM™-2 Endothelial Cell Growth Medium-2, Lonza, Basel, Switzerland) supplemented with 2% heat-inactivated fetal bovine serum and 0.04% hydrocortisone. Cell media was replaced every 48 hours, and the cells were split upon 80-90% confluence.
Final tested concentrations of HPSE inhibitors were calculated based upon repeatable in vitro dose-response studies. After 24 hours incubation, cell viability was confirmed by Trypan blue exclusion assay. Total mRNA was isolated using Trizol (Thermo Fisher Scientific Inc., Waltham, MA) and relative messenger RNA (mRNA) expression levels of hemeoxygenase-1 (HO-1), interleukin (IL)-6, tumor necrosis factor (TNF)-α, monocyte chemoattractant protein (MCP)-1, B-cell lymphoma 2 Associated X (Bax), B-cell lymphoma 2 (Bcl-2), B-cell lymphoma-extra-large (Bcl-xL) were quantified by SYBR Green 2-step, real-time, reverse transcription-polymerase chain reaction (RT-PCR). Relative gene expression levels were normalized to mRNA expression of glyceraldehyde-3-phosphate dehydrogenase (GAPDH) and compared to relative mRNA expression levels in control-treated HLMVEC.

HPSE = HPSE activity assay in rat lung tissue after 4 hours of EVLP; details: after 4-hours EVLP; heparin 1000-U/hour or SF4 1 μM in perfusate
Description: HPSE activity assay. HPSE activity was measured via a β-glucuronidase activity assay using 4-methylumbelliferyl-β-D-glucuronide (4-MUG) substrate (Millipore-Sigma). Briefly, after 4 hours of EVLP, lung tissues were homogenized in cold PBS. […] Fluorescence (λex 360 nm/λem 460 nm) was continuously measured for 60 minutes using a fluorescence microplate reader (BioTech Synergy HTX, Agilent Technologies, Santa Clara, CA).

[2] = system: HPSE1, MMP2, IL-6, IL-1β, TNF-α mRNA; IκB-α; experiment: Real-time RT-PCR and western blotting in rat lung tissue after 4 hours of EVLP
Description: (§1) Graft tissues collected after 4 hours of EVLP and 2 hours after reperfusion were examined for relative mRNA expression levels of interleukin (IL)-6, IL-1, tumor necrosis factor (TNF)-α, and glyceraldehyde-3-phosphate dehydrogenase (GAPDH). Gene expression levels were normalized to GAPDH mRNA levels.
Western blotting: Total isolated proteins were extracted/resolved by 10% SDS-PAGE followed by transfer to 0.2 μm nitrocellulose membranes (Bio-Rad Laboratories, Hercules, CA, USA). Membranes were blocked with 5% non-fat milk at room temperature for 2 hours and then incubated overnight at 4° C. with the following primary antibodies: inhibitor of KB-α (IκB-α; #9242, Cell Signaling Technology, Inc., Danvers, MA) and β-actin (#A1978, Millipore-Sigma). Membranes were then incubated with either goat anti-mouse IgG (H+L) (#31430, Thermo Fisher Scientific Inc.; 1:5000) or goat anti-rabbit IgG (H+L) (#31460, Thermo Fisher Scientific Inc.; 1:3000) horseradish peroxidase-conjugated polyclonal secondary antibodies at room temperature for 2 hours. Proteins were visualized using an enhanced chemiluminescence kit (Abcam), and protein bands were imaged and analyzed using Image Lab software (Version 6.0; Bio-Rad Laboratories, Inc., Hercules, CA). The intensities of protein bands were quantitated by Image J software (National Institutes of Health, Bethesda, MD).

[3] = system: glycosaminoglycans (GAGs), syndecan-1; experiment: Glycocalyx shedding in rat lungs during EVLP (GAGs, syndecan-1 ELISA, immunofluorescence); details: after 4 hours EVLP; SF4 vs heparin-treated, heparin vs controls
Description: Syndecan-1 ELISA: Syndecan-1 concentrations in EVLP perfusate were quantitated using ELISA (Immunotag™ Rat Syndecan-1 ELISA, G-Biosciences, Geno Technology, Inc., St. Louis, MO). ELISA was performed according to the manufacturer's instructions using perfusate samples acquired after 4 hours of EVLP.
Determination of glycosaminoglycans (GAGS): The concentration of GAGs in rat EVLP perfusate at 4 hours was quantitated using 1,9-dimethylmethylene blue (DMMB, Millipore Sigma). The DMMB solution (pH˜3.0) was prepared by dissolving 16 mg/I DMMB in distilled H2O containing 3.04 g/I glycine, 1.6 g/l NaCl and 95 ml 0.1 M acetic acid. Briefly, 1 ml DMMB solution was mixed with 100 μl EVLP perfusate then incubated for 18 h at room temperature. The tubes were then centrifuged at 14,000 rpm for 20 min at 4° C. Supernatants were carefully decanted, 100 μl dissolvent buffer (4 M guanidine hydrochloride, 50 mM sodium acetate, 10% propan-1-ol, pH 6.8) was added to each pellet, and the tubes were incubated at 40° C. and vortexed until GAG-DMMB pellets were completely dissolved. GAG content in each sample was measured spectrophotometrically at 656 nm.
(§2) Tissue staining and histopathological analysis: Formalin-fixed, paraffin-embedded lung tissues collected 2 hours after transplantation were sectioned to 4 μm thickness and stained with hematoxylin and eosin. In parallel, sections of tissue collected after 4 hours of EVLP were stained for immunofluorescence imaging using primary antibodies for syndecan-1 (DL-101) (#sc-12765, Santa Cruz) and caveolin-1 (#3238, Cell Signaling Technology, Danvers, MA) and with Hoechst 33342 dye (Thermo Scientific). Donkey Cy3-conjugated anti-mouse IgG (#AP192C, MilliporeSigma, Burlington, MA) and Cy5-conjugated goat anti-rabbit IgG (#A10523, Thermo Scientific) secondary antibodies were used to detect primary antibodies. Stained slides were scanned with a whole-slide image scanner (Axio Scan.Z1; Carl Zeiss AB, Oberkochen, Germany) and analyzed with digital image processing software (ZEN lite blue edition; Carl Zeiss).

rat lung grafts = experiment: Rat orthotopic left lung transplantation following EVLP; type: in vivo; details: 2 hours after transplant following 4 hours of EVLP
Description: Rat orthotopic left lung transplantation following EVLP: Orthotopic, single-lung transplantation of the left lung was performed using the 3-cuff method. After EVLP for 4 hours, the lungs were cooled with 4° C. Perfadex on the EVLP system and stored at 4° C. for 1 hour prior to transplantation. The recipient animals were sacrificed 2 hours after reperfusion. When analyzing graft function, the native lung was clamped, 100% 02 was administered for 5 minutes through a ventilator, and the recipient's blood was sampled from the graft pulmonary vein for blood gas analysis.
as §1, §2

heparanase (HPSE) = experiment: In vitro β-D-glucuronidase activity assay (4-MUG substrate)
Description: In vitro β-D-glucuronidase activity assay Heparanase activity was measured via β-Glucuronidase activity assay using 4-methylumbelliferyl-β-D-glucuronide (4-MUG) substrate (Millipore-Sigma). As a source of enzymes, platelet rich plasma (PRP) obtained from rat whole blood or rat lung whole tissue lysate, was used. […] Fluorescence (λex 360 nm/λem 460 nm) was continuously measured for 60 minutes using a fluorescence microplate reader (BioTech Synergy HTX, Agilent Technologies, Santa Clara, CA).

rat lungs = experiment: Rat EVLP for 4 hours with HPSE inhibitors in the perfusate: physiology, endothelial barrier, edema; details: heparin 1000-U/hour or SF4 1 μM in perfusate
Description: In the heparin group, 1000-U of heparin were initially added to the EVLP perfusate, then 1000-U of heparin were administered every hour during EVLP. […] Two control conditions were included in the experimental protocol: 1) sham controls (Sham) were lungs not placed on EVLP and 2) untreated controls (Control) were lungs placed on EVLP without HPSE inhibitor treatment. EVLP physiology, endothelial integrity, inflammation and glycocalyx preservation for EVLP lungs and post-transplant lung grafts were investigated across all treatment regimens.
Ex vivo lung perfusion in rats: EVLP was performed using a commercially-available rodent EVLP system (IL-2 Isolated Perfused Rat or Guinea Pig Lung System; Harvard apparatus, Holliston, MA). Acellular Steen solution was used for EVLP perfusate and medicated with methylprednisolone (Solu-Medrol®; Pfizer, Inc., New York, NY) and cephalosporin (Cefazolin; WG critical care LLC, Paramus, NJ) equally in all experimental groups. […] Pulmonary artery pressure, peak airway pressure, and airway flow were monitored continuously, and dynamic lung compliance (Cdyn) and pulmonary vascular resistance (PVR) were analyzed.
Evaluation of endothellal barrier Integrity After 4 hours of EVLP, 60 mg of Evans blue dye (EBD, Millipore-Sigma, Burlington, MA) was administered into the perfusate to assess vascular endothelial permeability. After 30 minutes of perfusion, the lung vascular bed was rinsed with 20 ml of phosphate-buffered saline (PBS), and slices of lungs were incubated in formamide (Millipore Sigma) overnight at 60° C. Absorbance of the extractant was measured at 620 nm, and EBD was normalized to dry-tissue weight.
Wet-to-Dry (W/D) weight ratio: Lung tissues collected 2 hours after transplant were immediately weighed then placed in a 60° C. oven to dry for 72 hours. Tissues were weighed again after drying to determine the wet-to-dry lung weight ratio.

Question: Which results are given for heparin?
Answer: toxicity against HLMVECs (endothelial cell cultures) [1]: safe; HPSE activity in the lungs (HPSE): partially inhibited; also recorded: not sufficiently nor significantly inhibited; IL-1β mRNA expression ([2]; lung tissue after 4-hours EVLP): increased; IL-6 mRNA expression ([2]; lung tissue after 4-hours EVLP): increased; TNF-α mRNA expression ([2]; lung tissue after 4-hours EVLP): increased; pro-MMP2 gene expression ([2]; lung tissue after 4 hours of EVLP): further upregulated; HPSE1 mRNA expression ([2]; lung tissue after 4 hours of EVLP, vs sham): not altered; syndecan-1 concentration in EVLP perfusate [3]: markedly increased; also recorded: significantly higher; H&E histology of grafts (rat lung grafts): swollen alveolar walls, congestion in the blood vessels, and fluid leaks into the alveolar space; post-transplant lung function (P/F ratio) (rat lung grafts): significantly lower; inhibition of HPSE in vitro, compared with SF4 (heparanase (HPSE); in vitro data): not as effective as SF4; β-D-glucuronidase activity, dose response (heparanase (HPSE); in vitro, FIG. 8): increased in a dose-dependent manner; pulmonary vascular resistance (PVR) during EVLP (rat lungs; 4-hour EVLP): increased; dynamic lung compliance (Cdyn) during EVLP (rat lungs; 4-hour EVLP, vs control): neither heparin nor SF4 altered Cdyn; Evans blue dye (EBD) accumulation in lung tissue (rat lungs; after 4-hours EVLP): significantly more EBD had accumulated; wet-to-dry (W/D) ratio (rat lungs; after 4 hours of EVLP): further augmented
